ChEMBL document CHEMBL1201862, “PubChem BioAssay data set” (2004)
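A five-concentration, 48-hour dose response in 96-well plates underlies each endpoint, interpolated linearly between surrounding concentrations. Abbreviation: GI50, concentration required for 50% inhibition of growth.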 Calls of active or inactive are those of the source. Cut-off read from the data, not from the text of the source: active = GI50 up to about 1.1 µM and inactive = higher.

Key:
Assay in all cases: growth of human tumour cells (NCI), 48 h
786-0 = system: 786-0
A498 = system: A498
A549 = system: A549
ACHN = system: ACHN
CCRF-CEM = system: CCRF-CEM
COLO 205 = system: COLO 205
DLD-1 = system: DLD-1
DMS-114 = system: DMS-114
DMS-273 = system: DMS-273
EKVX = system: EKVX
HCC 2998 = system: HCC 2998
HCT-116 = system: HCT-116
HCT-15 = system: HCT-15
HL-60 = system: HL-60
HOP-18 = system: HOP-18
HOP-62 = system: HOP-62
HOP-92 = system: HOP-92
HT-29 = system: HT-29
IGROV-1 = system: IGROV-1
K562 = system: K562
KM-20L2 = system: KM-20L2
KM12 = system: KM12
LOX IMVI = system: LOX IMVI
LXFL 529 = system: LXFL 529
M14 = system: M14
M19-MEL = system: M19-MEL
MOLT-4 = system: MOLT-4
Malme-3M = system: Malme-3M
NCI-H226 = system: NCI-H226
NCI-H23 = system: NCI-H23
NCI-H460 = system: NCI-H460
NCI-H522 = system: NCI-H522
OVCAR-3 = system: OVCAR-3
OVCAR-4 = system: OVCAR-4
OVCAR-5 = system: OVCAR-5
OVCAR-8 = system: OVCAR-8
RPMI-8226 = system: RPMI-8226
RXF 393 = system: RXF 393
RXF 631 = system: RXF 631
SF-268 = system: SF-268
SF-295 = system: SF-295
SF-539 = system: SF-539
SK-MEL-28 = system: SK-MEL-28
SK-MEL-2 = system: SK-MEL-2
SK-MEL-5 = system: SK-MEL-5
SK-OV-3 = system: SK-OV-3
SN12C = system: SN12C
SNB-19 = system: SNB-19
SNB-75 = system: SNB-75
SNB-78 = system: SNB-78
SW-620 = system: SW-620
TK-10 = system: TK-10
U-251 = system: U-251
UACC-257 = system: UACC-257
UACC-62 = system: UACC-62
UO-31 = system: UO-31
XF498 = system: XF498
CAKI-1 = system: CAKI-1
SR = system: SR

Structure (SMILES): CC(C)=CC1CCc2ccccc2N1S(=O)(=O)c1ccc(C)cc1 (stereo not drawn)
- GI50 (786-0): 2.35 µM (inactive)
- GI50 (A498): 1.61 µM (inactive)
- GI50 (A549): 1.22 µM (inactive)
- GI50 (ACHN): 3.31 µM (inactive)
- GI50 (CCRF-CEM): 0.373 µM (active)
- GI50 (COLO 205): 1.06 µM (active)
- GI50 (DLD-1): 2.57 µM (inactive)
- GI50 (DMS-114): 1.06 µM (active)
- GI50 (DMS-273): 0.697 µM (active)
- GI50 (EKVX): 10.6 µM (inactive)
- GI50 (HCC 2998): 1.27 µM (inactive)
- GI50 (HCT-116): 0.982 µM (active)
- GI50 (HCT-15): 1.09 µM
- GI50 (HL-60): 0.272 µM (active)
- GI50 (HOP-18): 4.19 µM (inactive)
- GI50 (HOP-62): 2.57 µM (inactive)
- GI50 (HOP-92): 0.433 µM (active)
- GI50 (HT-29): 1.36 µM (inactive)
- GI50 (IGROV-1): 2.4 µM (inactive)
- GI50 (K562): 0.59 µM (active)
- GI50 (KM-20L2): 1.34 µM (inactive)
- GI50 (KM12): 0.624 µM (active)
- GI50 (LOX IMVI): 1.68 µM (inactive)
- GI50 (LXFL 529): 2.36 µM (inactive)
- GI50 (M14): 1.27 µM (inactive)
- GI50 (M19-MEL): 1.44 µM (inactive)
- GI50 (MOLT-4): 1.18 µM (inactive)
- GI50 (Malme-3M): 1.67 µM (inactive)
- GI50 (NCI-H226): 1.77 µM (inactive)
- GI50 (NCI-H23): 1.4 µM (inactive)
- GI50 (NCI-H460): 1.36 µM (inactive)
- GI50 (NCI-H522): 1.52 µM (inactive)
- GI50 (OVCAR-3): 0.865 µM (active)
- GI50 (OVCAR-4): 4.31 µM (inactive)
- GI50 (OVCAR-5): 14.8 µM (inactive)
- GI50 (OVCAR-8): 2.72 µM (inactive)
- GI50 (RPMI-8226): 1.32 µM (inactive)
- GI50 (RXF 393): 1.24 µM (inactive)
- GI50 (RXF 631): 2.96 µM (inactive)
- GI50 (SF-268): 2.93 µM (inactive)
- GI50 (SF-295): 1.5 µM (inactive)
- GI50 (SF-539): 1.16 µM (inactive)
- GI50 (SK-MEL-28): 1.96 µM (inactive)
- GI50 (SK-MEL-2): 1.79 µM (inactive)
- GI50 (SK-MEL-5): 0.589 µM (active)
- GI50 (SK-OV-3): 1.7 µM (inactive)
- GI50 (SN12C): 2.99 µM (inactive)
- GI50 (SNB-19): 3.46 µM (inactive)
- GI50 (SNB-75): 1.17 µM (inactive)
- GI50 (SNB-78): 1.44 µM (inactive)
- GI50 (SW-620): 0.726 µM (active)
- GI50 (TK-10): 2.81 µM (inactive)
- GI50 (U-251): 1.19 µM (inactive)
- GI50 (UACC-257): 2.27 µM (inactive)
- GI50 (UACC-62): 0.982 µM (active)
- GI50 (UO-31): 3.61 µM (inactive)
- GI50 (XF498): 3.63 µM (inactive)

Structure (SMILES): COC(=O)C#CCC1CCCC1C1SCCS1 (stereo not drawn)
- GI50 (786-0): > 100 µM (inactive)
- GI50 (A498): > 100 µM (inactive)
- GI50 (A549): > 100 µM (inactive)
- GI50 (ACHN): 34 µM (inactive)
- GI50 (CAKI-1): > 100 µM (inactive)
- GI50 (CCRF-CEM): 29.2 µM (inactive)
- GI50 (COLO 205): > 100 µM (inactive)
- GI50 (DLD-1): 73.5 µM (inactive)
- GI50 (DMS-114): > 100 µM (inactive)
- GI50 (DMS-273): 30.4 µM (inactive)
- GI50 (EKVX): > 100 µM (inactive)
- GI50 (HCC 2998): > 100 µM (inactive)
- GI50 (HCT-116): > 100 µM (inactive)
- GI50 (HL-60): 38.1 µM (inactive)
- GI50 (HOP-18): > 100 µM (inactive)
- GI50 (HOP-62): > 100 µM (inactive)
- GI50 (HOP-92): > 100 µM (inactive)
- GI50 (HT-29): > 100 µM (inactive)
- GI50 (IGROV-1): > 100 µM (inactive)
- GI50 (K562): 43.5 µM (inactive)
- GI50 (KM-20L2): 59.6 µM (inactive)
- GI50 (KM12): 36.7 µM (inactive)
- GI50 (LOX IMVI): 50.2 µM (inactive)
- GI50 (LXFL 529): 70.1 µM (inactive)
- GI50 (M14): > 100 µM (inactive)
- GI50 (M19-MEL): > 100 µM (inactive)
- GI50 (MOLT-4): 21.2 µM (inactive)
- GI50 (Malme-3M): > 100 µM (inactive)
- GI50 (NCI-H226): > 100 µM (inactive)
- GI50 (NCI-H23): > 100 µM (inactive)
- GI50 (NCI-H522): 28 µM (inactive)
- GI50 (OVCAR-3): 88.3 µM (inactive)
- GI50 (OVCAR-4): 71.4 µM (inactive)
- GI50 (OVCAR-5): > 100 µM (inactive)
- GI50 (OVCAR-8): 61.1 µM (inactive)
- GI50 (RXF 393): > 100 µM (inactive)
- GI50 (RXF 631): > 100 µM (inactive)
- GI50 (SF-268): > 100 µM (inactive)
- GI50 (SF-295): 90.6 µM (inactive)
- GI50 (SF-539): 99.1 µM (inactive)
- GI50 (SK-MEL-28): > 100 µM (inactive)
- GI50 (SK-MEL-2): 26.2 µM (inactive)
- GI50 (SK-MEL-5): > 100 µM (inactive)
- GI50 (SK-OV-3): > 100 µM (inactive)
- GI50 (SN12C): 37.5 µM (inactive)
- GI50 (SNB-19): 91.4 µM (inactive)
- GI50 (SNB-75): > 100 µM (inactive)
- GI50 (SNB-78): 23.6 µM (inactive)
- GI50 (SR): 15.8 µM (inactive)
- GI50 (SW-620): > 100 µM (inactive)
- GI50 (TK-10): > 100 µM (inactive)
- GI50 (U-251): 59.6 µM (inactive)
- GI50 (UACC-257): 51.3 µM (inactive)
- GI50 (UACC-62): 35.8 µM (inactive)
- GI50 (UO-31): > 100 µM (inactive)
- GI50 (XF498): 41 µM (inactive)
